{"source": "paper PMC5860131", "about": "“Identification of natural products as novel ligands for the human 5-HT2C receptor” (Biophysics Reports, 2018)", "key": {"[1]": {"test_system": "cortical pyramidal neurons", "assay": "Whole-cell patch clamp recording of spontaneous synaptic current (SPSC) in brain slices", "type": "cell-based", "conditions": "30 μmol/L compound incubation, 10 μmol/L 5-HT; mouse brain slices", "experimental": "5-HT receptors play important roles in central and peripheral nervous systems. Malfunctions of these receptors have been linked to many neural disorders such as depression and psychosis. The effect of (–)-crebanine on changes in 5-HT induced synaptic transmission was evaluated by electrophysiological recording of mouse brain slices (Jang et al. [2012]). The spontaneous synaptic current (SPSC) of cortical pyramidal neurons was recorded in whole cell mode.\nCortical slices from ICR mouse of both genders (15–21 days) were prepared for electrophysiological recording. In brief, the animals were decapitated and brains were placed in cold sucrose artificial cerebrospinal fluid (sucrose-ASCF, in mmol/L: sucrose 213, KCl 2.5, NaH2PO4 1.25, NaHCO3 26, D-glucose 10, MgSO4 2, CaCl2 2, pH 7.4, 0–4 °C, saturated with 95% O2 and 5% CO2). The brains were cut into 280 or 300 μm slices with a vibratome (Leica VT1200S, Germany); slices were then incubated with ACSF (in mmol/L: NaCl 126, KCl 2.5, NaH2PO4 1.25, NaHCO3 26, D-glucose 25, MgSO4 2, CaCl2 2, pH 7.4, saturated with 95% O2 and 5% CO2) at room temperature for 1 h.\nA whole-cell patch clamp technique was used. […] Activity of cortical pyramidal neurons was recorded using an amplifier (HEKA EPC 10 USB, Germany) in the voltage clamp mode. […]"}, "[2]": {"biological_target": "T1, 5-HT2C receptor G218^5.42S (Homo sapiens, UniProt P28335, DEL255-298/G218S/G251D/H250E/H252N/INS299[…]/L248D/M247A/M300L/T253W)", "T1 construct": "the N- and C-terminals were truncated by 39 and 65 residues, respectively; PreScission protease site + 10× His (C); made in house", "T1 sequence (P28335 with tags, fused parts or gaps with the stated changes)": "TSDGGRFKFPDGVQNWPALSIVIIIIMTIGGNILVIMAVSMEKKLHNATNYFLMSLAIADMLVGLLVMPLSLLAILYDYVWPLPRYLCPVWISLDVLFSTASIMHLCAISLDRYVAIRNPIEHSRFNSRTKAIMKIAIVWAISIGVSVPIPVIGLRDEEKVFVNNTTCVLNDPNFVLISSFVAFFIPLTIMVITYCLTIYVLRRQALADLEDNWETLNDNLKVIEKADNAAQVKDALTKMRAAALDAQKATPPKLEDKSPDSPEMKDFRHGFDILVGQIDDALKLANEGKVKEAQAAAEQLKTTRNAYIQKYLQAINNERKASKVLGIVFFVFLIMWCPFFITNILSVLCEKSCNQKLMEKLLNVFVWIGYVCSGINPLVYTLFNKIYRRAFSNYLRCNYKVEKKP", "assay": "CPM thermal stability assay, 5-HT2C mutant G218S", "type": "binding", "from_the_text": "(§1) Based on the binding poses predicted by molecular docking, single-point mutations were designed to test their impact on ligand binding. Mutations of several residues include the highly conserved Asp134^3.32, which is known to cause 5-HT1B or 5-HT2B receptors to abolish the monoamine ligand binding as reported in the literature (Wang et al. [2013]). In this study, residues forming hydrophobic interactions with the substitution groups on the aporphine scaffold of (–)-crebanine (1) were selected for mutation as well and they are Thr139^3.37, Gly218^5.42, Ala222^5.46, and Leu209^ECL2. Effects of those mutations were tested with the CPM assay and the affinity MS assay (Table 2). In the affinity MS experiment, relative ligand-binding capacity (represented by binding %) to different mutants and the wild-type receptor was compared. […]\n(§2) Purified 5-HT2C receptor protein was thoroughly mixed with CPM fluorescent dyes. […] Fluorescence signals, wavelength 387 nm (excitation) and 463 nm (emission), were monitored (Alexandrov et al. [2008]). […] The thermal denaturation of the samples was evaluated using the scatter plot curve, where the horizontal coordinates represented temperature and the vertical coordinates indicated normalized fluorescence intensity recorded for a particular temperature. […]"}, "[3]": {"biological_target": "T2, 5-HT2C receptor A222^5.46V (Homo sapiens, UniProt P28335, A222V/DEL255-298/G251D/H250E/H252N/INS299[…]/L248D/M247A/M300L/T253W)", "T2 construct": "the N- and C-terminals were truncated by 39 and 65 residues, respectively; PreScission protease site + 10× His (C); made in house", "T2 sequence (P28335 with tags, fused parts or gaps with the stated changes)": "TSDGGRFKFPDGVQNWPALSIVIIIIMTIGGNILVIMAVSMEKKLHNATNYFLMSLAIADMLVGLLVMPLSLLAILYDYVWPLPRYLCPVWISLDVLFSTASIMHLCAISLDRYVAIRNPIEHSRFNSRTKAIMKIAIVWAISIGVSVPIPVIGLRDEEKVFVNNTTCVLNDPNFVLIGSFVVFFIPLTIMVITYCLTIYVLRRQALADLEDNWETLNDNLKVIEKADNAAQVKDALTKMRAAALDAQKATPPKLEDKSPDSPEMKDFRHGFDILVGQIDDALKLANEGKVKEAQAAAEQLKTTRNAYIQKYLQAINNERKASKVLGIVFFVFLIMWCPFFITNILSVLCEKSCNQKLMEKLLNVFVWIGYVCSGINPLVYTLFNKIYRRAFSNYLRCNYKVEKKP", "assay": "CPM thermal stability assay, 5-HT2C mutant A222V", "type": "binding", "from_the_text": "as §1, §2"}, "[4]": {"biological_target": "T3, 5-HT2C receptor A222^5.46F (Homo sapiens, UniProt P28335, A222F/DEL255-298/G251D/H250E/H252N/INS299[…]/L248D/M247A/M300L/T253W)", "T3 construct": "the N- and C-terminals were truncated by 39 and 65 residues, respectively; PreScission protease site + 10× His (C); made in house", "T3 sequence (P28335 with tags, fused parts or gaps with the stated changes)": "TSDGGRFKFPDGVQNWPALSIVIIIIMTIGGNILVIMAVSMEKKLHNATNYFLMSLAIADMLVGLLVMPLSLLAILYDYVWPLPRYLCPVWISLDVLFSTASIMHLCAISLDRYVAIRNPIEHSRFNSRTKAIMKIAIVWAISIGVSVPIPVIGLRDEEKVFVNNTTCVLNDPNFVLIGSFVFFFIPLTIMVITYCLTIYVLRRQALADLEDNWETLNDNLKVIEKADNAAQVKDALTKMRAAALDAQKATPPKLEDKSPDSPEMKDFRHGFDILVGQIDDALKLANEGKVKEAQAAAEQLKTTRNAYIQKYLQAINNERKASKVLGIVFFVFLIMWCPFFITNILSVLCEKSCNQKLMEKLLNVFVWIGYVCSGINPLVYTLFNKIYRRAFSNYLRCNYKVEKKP", "assay": "CPM thermal stability assay, 5-HT2C mutant A222F", "type": "binding", "conditions": "mutant A222^5.46F, n = 2", "from_the_text": "as §1, §2"}, "[5]": {"biological_target": "T4, 5-HT2C receptor T139^3.37A (Homo sapiens, UniProt P28335, DEL255-298/G251D/H250E/H252N/INS299[…]/L248D/M247A/M300L/T139A/T253W)", "T4 construct": "the N- and C-terminals were truncated by 39 and 65 residues, respectively; PreScission protease site + 10× His (C); made in house", "T4 sequence (P28335 with tags, fused parts or gaps with the stated changes)": "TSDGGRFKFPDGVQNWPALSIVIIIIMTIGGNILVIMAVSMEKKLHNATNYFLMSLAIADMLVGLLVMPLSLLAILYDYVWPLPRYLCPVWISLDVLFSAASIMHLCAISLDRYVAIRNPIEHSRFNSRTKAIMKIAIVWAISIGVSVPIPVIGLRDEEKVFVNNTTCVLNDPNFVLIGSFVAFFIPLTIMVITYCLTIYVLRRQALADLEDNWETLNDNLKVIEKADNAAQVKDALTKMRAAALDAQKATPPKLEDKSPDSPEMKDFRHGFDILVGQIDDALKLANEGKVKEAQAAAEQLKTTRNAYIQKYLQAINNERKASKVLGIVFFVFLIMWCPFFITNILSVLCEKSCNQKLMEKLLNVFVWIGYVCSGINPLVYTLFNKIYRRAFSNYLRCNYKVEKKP", "assay": "CPM thermal stability assay, 5-HT2C mutant T139A", "type": "binding", "conditions": "mutant T139^3.37A, n = 2", "from_the_text": "as §1, §2"}}, "data": [{"smiles": "COc1ccc2c(c1OC)C[C@@H]1c3c(cc4c(c3-2)OCO4)CCN1C", "note": "[Compound 1, (–)-crebanine]", "values": [{"measurement": "effect on 5-HT induced SPSC", "setting": "[1]", "result": "significantly attenuated"}, {"measurement": "(–)-Crebanine/CPM (Tm)", "setting": "[2]; mutant G218^5.42S, n = 2", "result": 53.24, "unit": "°C"}, {"measurement": "Tm value decrease versus wild-type", "setting": "[2]; mutation Gly218^5.42Ser", "result": "over 6.0 °C"}, {"measurement": "(–)-Crebanine/CPM (Tm)", "setting": "[3]; mutant A222^5.46V, n = 2", "result": 59.55, "unit": "°C"}, {"measurement": "Tm value decrease versus wild-type", "setting": "[3]; mutation Ala222^5.46Val", "result": 0.38, "unit": "°C"}, {"measurement": "(–)-Crebanine/CPM (Tm)", "setting": "[4]", "result": 55.70, "unit": "°C"}, {"measurement": "(–)-Crebanine/CPM (Tm)", "setting": "[5]", "result": 54.63, "unit": "°C"}]}]}
